Results reported in patent US20220339143A1, “TAK-925 FOR USE IN TREATING NARCOLEPSY” (Takeda Pharmaceutical Company Limited, priority 2019, published 2022).
“Also recorded” adds a separate entry of the source. Read-outs that look alike come from different tables or passages of the source.

Experiment: Single dose PK in healthy subjects (Cohorts 1, 2, S1 and S2), plasma
Format: in vivo, human
Procedure: This study investigates (i) the safety and tolerability of Compound A (methyl (2R,3S)-3-((methylsulfonyl)amino)-2-(((cis-4-phenylcyclohexyl)oxy)methyl)piperidine-1-carboxylate) when a single dose given as a 9 hour continuous IV infusion is administered to healthy adults, healthy elderly subjects and patients with narcolepsy type 1 (NT1); (ii) the pharmacokinetics of Compound A when a single dose given as a 9 hour continuous IV infusion is administered to healthy adults, healthy elderly subjects and patients with narcolepsy type 1; and (iii) the pharmacodynamics (PD) effects of Compound A, primarily by evaluation of the sleep latency on MWT when a single dose given as a 9 hour continuous IV infusion is administered to patients with narcolepsy type 1.
Pharmacokinetics: Concentrations of Compound A in plasma, and CSF, and pharmacokinetics parameters.
On average, the time to reach the plateau appeared to be approximately 3 to 4 hours after the start of infusion. […] After switching off the IV infusion, Compound A plasma concentrations declined rapidly and in a biphasic manner with a mean terminal disposition phase t1/2z ranging approximately from 3.4 to 5.1 hours across all doses. […] Table 5 provides a summary of plasma concentrations of Compound A after a single IV infusion in healthy subjects. Table 6 provides a summary of pharmacokinetic parameters of Compound A after a single IV infusion in healthy subjects.

[1] = 56 mg, 2 hr After End of Infusion
[2] = 112 mg single IV infusion, healthy subjects
[3] = 112 mg, 0.17 hr After End of Infusion
[4] = 134.4 mg single IV infusion, healthy subjects
[5] = 134.4 mg, 0.17 hr After End of Infusion
[6] = 180 mg single IV infusion, healthy subjects
[7] = 240 mg single IV infusion, healthy subjects
[8] = human, plasma, intravenous, 7 mg, read-out: Plasma concentration, Mean
[9] = human, plasma, intravenous, 7 mg, read-out: Plasma concentration, Median
[10] = human, plasma, intravenous, 7 mg, read-out: Plasma concentration, Minimum
[11] = human, plasma, intravenous, 7 mg, read-out: Plasma concentration, Q1

For COC(=O)N1CCC[C@H](NS(C)(=O)=O)[C@@H]1CO[C@H]1CC[C@@H](c2ccccc2)CC1 [Compound A, methyl (2R,3S)-3-((methylsulfonyl)amino)-2-(((cis-4-phenylcyclohexyl)oxy)methyl)piperidine-1-carboxylate], the “Plasma concentration, Mean” value [1] was 21.70 ng/mL, the “Plasma concentration, Minimum” value [1] was 15.4 ng/mL and the “Plasma concentration, Q1” value [1] was 15.60 ng/mL. For the same molecule, the “AUCinf D Mean” value [2] was 18.87 ng·h/mL/mg, the “AUCinf D Median” value [2] was 19.25 ng·h/mL/mg and the “Cmax D Mean” value [2] was 2.130 ng/mL/mg. The “Cmax D Median” value [2] was 2.230 ng/mL/mg, the “t½z Mean” value [2] was 3.788 h and the “t½z Median” value [2] was 3.370 h. The “Plasma concentration, Maximum” value [3] was 138 ng/mL, the “Plasma concentration, Mean” value [3] was 126.2 ng/mL and the “Plasma concentration, Median” value [3] was 133.0 ng/mL. The “Plasma concentration, Minimum” value [3] was 106 ng/mL, the “Plasma concentration, Q1” value [3] was 110.0 ng/mL and the “Plasma concentration, Q3” value [3] was 137.0 ng/mL. For the same molecule, the “Plasma concentration, Maximum” value (112 mg, Predose) was 0.00 ng/mL, the “Plasma concentration, Median” value (112 mg, Predose) was 0.000 ng/mL and the “Plasma concentration, Minimum” value (112 mg, Predose) was 0.00 ng/mL. For the same molecule, the “Plasma concentration, Q1” value (112 mg, Predose) was 0.000 ng/mL, the “Plasma concentration, Q3” value (112 mg, Predose) was 0.000 ng/mL and the “AUCinf D Mean” value [4] was 20.23 ng·h/mL/mg. The “AUCinf D Median” value [4] was 19.95 ng·h/mL/mg, the “Cmax D Mean” value [4] was 2.293 ng/mL/mg and the “Cmax D Median” value [4] was 2.340 ng/mL/mg. The “t½z Mean” value [4] was 3.943 h, the “t½z Median” value [4] was 3.760 h and the “Plasma concentration, Maximum” value [5] was 255 ng/mL. The “Plasma concentration, Mean” value [5] was 181.7 ng/mL, the “Plasma concentration, Median” value [5] was 167.5 ng/mL and the “Plasma concentration, Minimum” value [5] was 145 ng/mL. The “Plasma concentration, Q1” value [5] was 148.0 ng/mL, the “Plasma concentration, Q3” value [5] was 207.0 ng/mL and the “Plasma concentration, Maximum” value (134.4 mg, Predose) was 0.00 ng/mL. The “Plasma concentration, Mean” value (134.4 mg, Predose) was 0.000 ng/mL, the “Plasma concentration, Median” value (134.4 mg, Predose) was 0.000 ng/mL and the “Plasma concentration, Minimum” value (134.4 mg, Predose) was 0.00 ng/mL. The “Plasma concentration, Q1” value (134.4 mg, Predose) was 0.000 ng/mL, the “Plasma concentration, Q3” value (134.4 mg, Predose) was 0.000 ng/mL and the “AUCinf D Mean” value [6] was 16.73 ng·h/mL/mg. For the same molecule, the “AUCinf D Median” value [6] was 16.90 ng·h/mL/mg, the “Cmax D Mean” value [6] was 1.918 ng/mL/mg and the “Cmax D Median” value [6] was 1.990 ng/mL/mg. The “t½z Mean” value [6] was 3.363 h, the “t½z Median” value [6] was 3.225 h and the “AUCinf D Mean” value [7] was 19.28 ng·h/mL/mg. For the same molecule, the “AUCinf D Median” value [7] was 18.45 ng·h/mL/mg, the “Cmax D Mean” value [7] was 2.133 ng/mL/mg and the “Cmax D Median” value [7] was 2.010 ng/mL/mg. The “Vss Median” value [7] was 99.25 L, the “t½z Mean” value [7] was 4.033 h and the “t½z Median” value [7] was 4.230 h. For the same molecule, the “dose proportionality of mean plasma systemic exposure” value (doses of 7 to 240 mg, healthy adults) was “increased approximately dose proportionally; also recorded: exhibits linear pharmacokinetics”, the concentration at 0.33 h after end of infusion [8] was 7.34 ng/mL and the concentration at 0.33 h after end of infusion [9] was 7.16 ng/mL. It also gave a concentration at 0.33 h after end of infusion [10] of 6.28 ng/mL, a concentration at 0.33 h after end of infusion [11] of 7.12 ng/mL and a concentration at 0.33 h after end of infusion (human, plasma, intravenous, 7 mg, read-out: Plasma concentration, Q3) of 7.26 ng/mL. The concentration at 0.5 h after end of infusion [8] was 6.73 ng/mL, the concentration at 0.5 h after end of infusion [9] was 6.46 ng/mL and the concentration at 0.5 h after end of infusion [10] was 6.1 ng/mL. The concentration at 0.5 h after end of infusion [11] was 6.26 ng/mL, the concentration at 0.5 h (human, plasma, intravenous, 7 mg, 0.5 hr, read-out: Plasma concentration, Maximum) was 10.5 ng/mL and the concentration at 0.5 h (human, plasma, intravenous, 7 mg, 0.5 hr, read-out: Plasma concentration, Mean) was 9.15 ng/mL. It also gave a concentration at 0.5 h (human, plasma, intravenous, 7 mg, 0.5 hr, read-out: Plasma concentration, Median) of 9.54 ng/mL, a concentration at 0.5 h (human, plasma, intravenous, 7 mg, 0.5 hr, read-out: Plasma concentration, Minimum) of 6.99 ng/mL and a concentration at 0.5 hr (human, plasma, intravenous, 7 mg, 0.5 hr, read-out: Plasma concentration, Q1) of 7.83 ng/mL. For the same molecule, the concentration at 0.5 h (human, plasma, intravenous, 7 mg, 0.5 hr, read-out: Plasma concentration, Q3) was 10.5 ng/mL, the concentration at 0.75 h after end of infusion [8] was 5.55 ng/mL and the concentration at 0.75 h after end of infusion [9] was 5.38 ng/mL. For the same molecule, the concentration at 0.75 h after end of infusion [10] was 5.27 ng/mL, the concentration at 0.75 h after end of infusion [11] was 5.35 ng/mL and the concentration at 1 h after end of infusion [8] was 4.91 ng/mL. For the same molecule, the concentration at 1 h after end of infusion [9] was 4.83 ng/mL, the concentration at 1 h after end of infusion [10] was 4.34 ng/mL and the concentration at 1 h after end of infusion [11] was 4.82 ng/mL. It also gave a concentration at 1 h (human, plasma, intravenous, 7 mg, 1 hr, read-out: Plasma concentration, Maximum) of 15.1 ng/mL, a concentration at 1 h (human, plasma, intravenous, 7 mg, 1 hr, read-out: Plasma concentration, Mean) of 11.7 ng/mL and a concentration at 1 h (human, plasma, intravenous, 7 mg, 1 hr, read-out: Plasma concentration, Median) of 11.9 ng/mL. It also gave a concentration at 1 h (human, plasma, intravenous, 7 mg, 1 hr, read-out: Plasma concentration, Minimum) of 8.68 ng/mL, a concentration at 1 hr (human, plasma, intravenous, 7 mg, 1 hr, read-out: Plasma concentration, Q1) of 9.45 ng/mL and a concentration at 1 h (human, plasma, intravenous, 7 mg, 1 hr, read-out: Plasma concentration, Q3) of 13.2 ng/mL. For the same molecule, the concentration at 1.5 h after end of infusion [8] was 4.25 ng/mL, the concentration at 1.5 h after end of infusion [9] was 4.5 ng/mL and the concentration at 1.5 h after end of infusion [10] was 3.27 ng/mL. For the same molecule, the concentration at 1.5 h after end of infusion [11] was 4.15 ng/mL, the concentration at 1.5 h (human, plasma, intravenous, 7 mg, 1.5 hr, read-out: Plasma concentration, Maximum) was 17.6 ng/mL and the concentration at 1.5 h (human, plasma, intravenous, 7 mg, 1.5 hr, read-out: Plasma concentration, Mean) was 13.1 ng/mL. It also gave a concentration at 1.5 h (human, plasma, intravenous, 7 mg, 1.5 hr, read-out: Plasma concentration, Median) of 13 ng/mL, a concentration at 1.5 h (human, plasma, intravenous, 7 mg, 1.5 hr, read-out: Plasma concentration, Minimum) of 8.96 ng/mL and a concentration at 1.5 hr (human, plasma, intravenous, 7 mg, 1.5 hr, read-out: Plasma concentration, Q1) of 12 ng/mL. The concentration at 1.5 h (human, plasma, intravenous, 7 mg, 1.5 hr, read-out: Plasma concentration, Q3) was 14 ng/mL, the concentration at 2 h (human, plasma, intravenous, 7 mg, 2 hr, read-out: Plasma concentration, Maximum) was 18.5 ng/mL and the concentration at 2 h (human, plasma, intravenous, 7 mg, 2 hr, read-out: Plasma concentration, Mean) was 14.8 ng/mL. The concentration at 2 h (human, plasma, intravenous, 7 mg, 2 hr, read-out: Plasma concentration, Median) was 14.9 ng/mL, the concentration at 2 h (human, plasma, intravenous, 7 mg, 2 hr, read-out: Plasma concentration, Minimum) was 10.9 ng/mL and the concentration at 2 hr (human, plasma, intravenous, 7 mg, 2 hr, read-out: Plasma concentration, Q1) was 12.8 ng/mL. It also gave a concentration at 2 h (human, plasma, intravenous, 7 mg, 2 hr, read-out: Plasma concentration, Q3) of 16.5 ng/mL, a concentration at 3 h (human, plasma, intravenous, 7 mg, read-out: Plasma concentration, Maximum) of 20.2 ng/mL and a concentration at 3 h [8] of 16.5 ng/mL. For the same molecule, the concentration at 3 h [9] was 15.8 ng/mL and the concentration at 3 h [10] was 13.2 ng/mL.
